Assay results taken from publication PMC6105673 (Nature Communications, 2018).
*: point of attachment. Biotin = O=C1N[C@H]2[C@H](CS[C@H]2CCCCC(=O)*)N1

B1: HIF-2α WT peptide (523-542), unmodified (peptide)
peptide: Biotin-ELDLETLAPYIPMDGEDFQL-NH2
SMILES: CC[C@H](C)[C@H](NC(=O)[C@H](Cc1ccc(O)cc1)NC(=O)[C@@H]1CCCN1C(=O)[C@H](C)NC(=O)[C@H](CC(C)C)NC(=O)[C@@H](NC(=O)[C@H](CCC(=O)O)NC(=O)[C@H](CC(C)C)NC(=O)[C@H](CC(=O)O)NC(=O)[C@H](CC(C)C)NC(=O)[C@H](CCC(=O)O)NC(=O)CCCC[C@@H]1SC[C@@H]2NC(=O)N[C@@H]21)[C@@H](C)O)C(=O)N1CCC[C@H]1C(=O)N[C@@H](CCSC)C(=O)N[C@@H](CC(=O)O)C(=O)NCC(=O)N[C@@H](CCC(=O)O)C(=O)N[C@@H](CC(=O)O)C(=O)N[C@@H](Cc1ccccc1)C(=O)N[C@@H](CCC(N)=O)C(=O)N[C@@H](CC(C)C)C(N)=O
notes: Used for the pull-down of HIS6-PHD2; source: synthetic peptide (Genscript)
B2: HIF-2α M535I peptide (523-542), unmodified (peptide, UniProt Q99814 523-542, looked up)
peptide: Biotin-ELDLETLAPYIPIDGEDFQL-NH2
SMILES: CC[C@H](C)[C@H](NC(=O)[C@@H]1CCCN1C(=O)[C@@H](NC(=O)[C@H](Cc1ccc(O)cc1)NC(=O)[C@@H]1CCCN1C(=O)[C@H](C)NC(=O)[C@H](CC(C)C)NC(=O)[C@@H](NC(=O)[C@H](CCC(=O)O)NC(=O)[C@H](CC(C)C)NC(=O)[C@H](CC(=O)O)NC(=O)[C@H](CC(C)C)NC(=O)[C@H](CCC(=O)O)NC(=O)CCCC[C@@H]1SC[C@@H]2NC(=O)N[C@@H]21)[C@@H](C)O)[C@@H](C)CC)C(=O)N[C@@H](CC(=O)O)C(=O)NCC(=O)N[C@@H](CCC(=O)O)C(=O)N[C@@H](CC(=O)O)C(=O)N[C@@H](Cc1ccccc1)C(=O)N[C@@H](CCC(N)=O)C(=O)N[C@@H](CC(C)C)C(N)=O
notes: Used for the pull-down of HIS6-PHD2; also called M535I class 2 mutant; source: synthetic peptide (Genscript)

Tests used:
HIS6-PHD2 (181–426) [1] = experiment: In vitro hydroxylation assay (HIS6-PHD2 treatment, then IVTT pVHL pull-down); assay type: biochemical; settings: unmodified biotinylated peptides, 15 μg/mL HIS6-PHD2 (181–426), 1 h room temperature, then IVTT HA-VHL30 under stringent buffer
Description: Considering that prolyl hydroxylation is indispensable for HIF-2α binding to pVHL, we next examined the notion that the A530V mutation negatively influences hydroxylation of HIF-2α via PHD2, which would attenuate HIF-2α A530V binding affinity for pVHL. We conducted an in vitro hydroxylation assay utilizing unmodified peptides (amino acids 523–542) incubated with purified HIS6-PHD2 (catalytic core, amino acids 181–426).
Fig. 5 A subset of class 1 mutations specifically disrupts PHD2-mediated hydroxylation. a, b Biotinylated HIF-2α peptides (residues 523–542) were immobilized on streptavidin- agarose beads and incubated with HIS6-PHD2 for 1 h at room temperature prior to incubation with in vitro transcribed and translated (IVTT) pVHL. Streptavidin beads were pulled down (PD) and levels of HA-tagged pVHL were visualized via immmunoblotting (IB). c HEK293a cells were co-transfected with FLAG-VHL and HA-HIF-2α constructs. FLAG was immunoprecipitated (IP) and levels of HA-tagged HIF-2α were visualized via immunoblotting (IB). * denotes uncharacterized band
The in vitro pVHL-HIF-2α hydroxylation assay was performed according to a previously published protocol. 5 μg of biotinylated HIF-2α peptide was immobilized on streptavidin-agarose beads. Subsequently, peptides were incubated with 15 μg/mL HIS6-PHD2 (181–426) in 500 μL of 40 mM HEPES pH 7.4, 80 mM KCl, 5 mM a-ketoglutarate, 2 mM ascorbic acid, 100 μM FeCl2 tetrahydrate solution at room temperature for 1 h. FeCl2 was stored under anoxic conditions to prevent oxidation. Following hydroxylation, beads were washed 5x with EBC buffer and peptides were incubated with IVTT HA-VHL30 under the stringent buffer conditions described above.

HIS6-PHD2 (181–426) [2] = experiment: Steady-state pull-down of purified HIS6-PHD2 with biotinylated HIF-2α peptides; assay type: binding; settings: for affinity for PHD2 in steady-state pull-down (immunoblot, in words): peptides (523–542), purified HIS6-PHD2 (181–426), with 1 mM MnCl2 and 1 mM NOG, 2 h at 4 °C
From the text: To first test this hypothesis, we performed steady-state pull-down experiments with HIF-2α peptides (523–542) and purified HIS6-PHD2 (181–426). To stabilize the interaction between enzyme and substrate, it was necessary to include MnCl2 and N-oxalylglycine (NOG) in the binding buffer. Mn^2+ and NOG substitute for Fe^2+ and αKG, respectively, which stabilizes the HIF-2α-PHD2 interaction while preventing enzymatic turnover. A similar strategy was employed during co-crystallization of HIF-1α peptide with PHD2[43]. We observed that […] tested HIF-2α mutations result in decreased affinity for PHD2 (Supplementary Figure 6a). […] Next, we co-transfected HEK293a cells with 3xFLAG-HIF-2α ODD and HA-PHD2 constructs. […] The increased binding of the M535I mutant to PHD2 was not observed in this experiment. One important caveat is that the HIF-2α ODD constructs contain both the P405 and P531 sites. Thus, the residual PHD2 binding observed among HIF-2α mutants may partially be driven by the P405 site, which may mask differential PHD2 binding among the HIF-2α mutant ODD constructs.
5 μg of biotinylated HIF-2α peptide (WT or mutant) was immobilized on streptavidin agarose beads and incubated with a […] solution of purified HIS6-PHD2 (181–426) in 50 mM Tris-HCl pH 7.5, 0.005% (v/v) Tween-20 buffer supplemented with or without 1 mM MnCl2 and 1 mM NOG, for 2 h at 4 °C. Beads were washed 2x with the same buffer. Biotinylated peptide was pulled down via streptavidin agarose beads and protein was eluted by boiling beads in sample buffer. Protein levels of HIS6-PHD2 were determined by western blotting. Uncropped western blots are provided in Supplementary Figure 8.
Supplementary Figure 6. HIF-2α mutations disrupt PHD2 binding. (A) Biotinylated HIF-2α peptides (523-542, except where noted) were immobilized on streptavidin- agarose beads and incubated with purified HIS6-PHD2 (181-426) in the presence or absence of 1 mM MnCl2 and 1 mM N-oxalylglycine (NOG).
Streptavidin beads were pulled down (PD) and levels of HIS6-tagged PHD2 were visualized via immmunoblotting (IB). […]

HIS6-PHD2(181-426) = experiment: Biolayer interferometry of HIS6-PHD2 binding to biotinylated HIF-2α peptides (523-542); settings: BLI, 1 mM MnCl2 and 1 mM N-oxalylglycine, from mM to μM, accurate constants not possible (PHD2 aggregation)
From the text: 2. The authors concluded that some of class 1 mutation affects PHD2-mediated hydroxylation of HIF-2α (Fig. 4). I think it is better to examine the interaction between HIF -2α mutants and PHD2 utilizing IP-Western and BLI. Also, negative controls (non-hydroxylated HIF-2α peptide without PHD2 treatment) should be included in Fig. 4A and 4B.
RE S PO N S E : Done. We performed binding assays with recombinant PHD2 to test the reviewer’s […]
major technical hurdle with performing binding assay with enzymes is overcoming the inherently transient nature of the interaction.
In an effort to stabilize the interaction between HIF-2α peptide and PHD2, we incorporated a technique that was used during co-crystallization of HIF-1α peptide with PHD2 (Chowdhury et al., 2009). As PHD2 normally forms a stable complex with co-factors Fe2+ and α-ketoglutarate (αK G), we formed a complex of PHD2 with Mn2+ and N-oxalylglycine (NOG), which mimic iron and αK G, […]
During BLI experiments, the addition of […]
Figure X. Biolayer interferometry studies of HIF-2α peptide binding to PHD2. […] Biotinylated peptides were coupled to streptavidin- coated biosensors and monitored for binding to PHD2 at the indicated concentrations in the presence or absence of 1 mM MnCl2 and 1 mM N-oxalylglycine. The data were analyzed based on a 1:1 binding model using the BLItz Pro software with the fitted curves shown as gray lines. […]

[3] = molecular target: T1, HIS6-PHD2 (catalytic core, amino acids 181–426) (UniProt Q9GZT9 181-426); experiment: pull-down; biotinylated unmodified peptide on streptavidin agarose, purified HIS6-PHD2 (181–426), 50 mM Tris-HCl pH 7.5, 0.005% Tween-20 with 1 mM MnCl2 and 1 mM NOG, 2 h at 4 °C; anti-HIS blot; settings: both partners purified
T1 construct: prolyl hydroxylase domain containing enzyme 2 (PHD2, encoded by EGLN1), catalytic core, residues 181-426; plasmid pET-46 HIS6-PHD2; also called purified HIS6-PHD2 (181–426); source: E. coli BL21(DE3), purified (nickel sepharose, SEC)
T1 sequence (Q9GZT9 181-426): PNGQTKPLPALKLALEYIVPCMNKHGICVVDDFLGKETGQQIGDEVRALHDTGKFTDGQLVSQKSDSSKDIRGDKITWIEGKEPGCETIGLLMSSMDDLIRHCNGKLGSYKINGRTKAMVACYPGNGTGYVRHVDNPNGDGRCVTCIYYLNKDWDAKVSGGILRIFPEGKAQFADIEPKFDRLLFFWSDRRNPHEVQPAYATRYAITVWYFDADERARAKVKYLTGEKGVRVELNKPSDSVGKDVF

Molecule | binding to pVHL following HIS6-PHD2 treatment (immunoblot, in words) (HIS6-PHD2 (181–426) [1]) | affinity for PHD2 in steady-state pull-down (immunoblot, in words) (HIS6-PHD2 (181–426) [2]) | decrease of Kd for PHD2 on addition of Mn2+ and NOG (HIS6-PHD2(181-426)) | pull-down of recombinant PHD2 (in words) (HIS6-PHD2 (181–426) [2]; earlier experiments, without Mn2+/NOG stabilization) | binding result [3]
Bio-HIF-2α(M535I): unmodified HIF-2α peptide (523–542) with M535I mutation (Biotin-ELDLETLAPYIPIDGEDFQL-NH2; SMILES CC[C@H](C)[C@H](NC(=O)[C@@H]1CCCN1C(=O)[C@@H](NC(=O)[C@H](Cc1ccc(O)cc1)NC(=O)[C@@H]1CCCN1C(=O)[C@H](C)NC(=O)[C@H](CC(C)C)NC(=O)[C@@H](NC(=O)[C@H](CCC(=O)O)NC(=O)[C@H](CC(C)C)NC(=O)[C@H](CC(=O)O)NC(=O)[C@H](CC(C)C)NC(=O)[C@H](CCC(=O)O)NC(=O)CCCC[C@@H]1SC[C@@H]2NC(=O)N[C@@H]21)[C@@H](C)O)[C@@H](C)CC)C(=O)N[C@@H](CC(=O)O)C(=O)NCC(=O)N[C@@H](CCC(=O)O)C(=O)N[C@@H](CC(=O)O)C(=O)N[C@@H](Cc1ccccc1)C(=O)N[C@@H](CCC(N)=O)C(=O)N[C@@H](CC(C)C)C(N)=O) | still retained affinity for pVHL | not as deleterious | – | – | –
ELDLETLA[Hyp/P]YIPMDGEDFQL [Bio-HIF-2α(523-542;WT)] | bound robustly | observed binding | roughly 1000 fold | failed to pull -down recombinant PHD2 protein | –
B1 | – | – | – | – | binds
B2 | – | – | – | – | binds
